Results taken from article PMC7048748, “Anxiolytic Drug FGIN-1-27 Ameliorates Autoimmunity by Metabolic Reprogramming of Pathogenic Th17 Cells” (Scientific Reports, 2020).

Tests used:
Th17 cells = assay: Rescue of IL-17 production by NAC pre-treatment; format: cell-based, mouse; conditions: NAC 1 µM pre-treatment, 10 µM FGIN-1-27
Experimental: Figure 5 FGIN-1-27 induces amino acid starvation response (AAR). (a) MA-plot showing shrunken log2 fold-changes of detected genes between the DMSO and FGIN-1-27 RNA-seq samples, ranked by average normalized count. Red dots indicate differentially expressed genes at adjusted p-value <0.05. (b) Transcript levels for the indicated genes after 24 hours of treatment with DMSO or FGIN-1-27 quantified by qPCR. The error bars represent SD. (c) Western blot analysis for phosphorylated eIF2α and ATF4 24 hours after treatment with DMSO or FGIN-1-27 (5 and 10 µM). Data are representative of 3 independent experiments. (d) Amino acids in Th17 cells measured 72 hours after treatment with FGIN-1-27. The error bars represent SD. (e) ROS was measured using cell permeant reagent 2′,7′ –dichlorofluorescin diacetate (DCFDA) at 24 hours following treatment with FGIN-1-27. Filled grey histogram-DMSO, dotted line-FGIN-1-27 (10 µM) and dashed line indicates FGIN-1-27 (5 µM). (f) Dose response plot showing effect of FGIN-1-27 on intracellular IL-17 after pre-treatment with NAC (1 µM). […]
Increased amino acid synthesis and transport is characteristic of the amino acid starvation response (AAR)[20]. […] Induction of ATF4 can be an indication of oxidative stress and we measured reactive oxygen species (ROS) using the cell permeant reagent 2′,7′ –dichlorofluorescin diacetate (DCFDA).

Th17 responses = test system: Th17 responses; parameters: method as in PMID 19498172; conditions: activation of the AAR; cited from earlier work

Question: With `CC(=O)N[C@@H](CS)C(=O)O` [NAC, N-acetyl cysteine] as the molecule, how does the “rescue of defective IL-17 production” value (Th17 cells) read?
Answer: Its value is 14%.

Question: With `O=C(CC1NCCCC1O)Cn1cnc2cc(Br)c(Cl)cc2c1=O` (centres unmarked) [halofuginone] as the molecule, how does the Th17 responses (Th17 responses) read?
Answer: Its Th17 responses is “down-regulate Th17 responses”.
